Test results: patent US20210284952A1, “METHODS OF APPLYING ACETATE TOXICITY AND INDUCING ACETATE UPTAKE IN MICROALGAE CULTURES” (HELIAE DEVELOPMENT LLC, priority 2016, published 2021)
Counter-ions that a name gives are not always drawn. Like-named read-outs stand apart in the source and are kept apart here.

How the values were obtained:
[1] = system: Aurantiochytrium sp. HS399; conditions: pH 6±0.2 auxostat, dissolved oxygen
Description: An experiment was performed to determine the effect on respiration in microalgae Aurantiochytrium sp. HS399 in response to acetate toxicity (i.e., the increase of the internal cell acetate concentration). […] Data presented corresponds to a 4 day old 30 L bubble column bag bioreactor growing in axenic conditions at culture density of 24 g/L, that was incubated at a temperature of 29.5±0.3° C., and aerated at a rate of 10 LPM. The pH probe: E&H, Digital non-glass pH sensor, Tophit CPS471D helped to maintain the pH at 6±0.2 in a pH auxostat mode. The DO was recorder with a Hamilton, EasyFerm Plus Arc 120, P/N: 242091/06 probe. Samples were taken before and after each pulse and analyzed for residual acetate using HPLC. Internal acetate was fluctuations were calculated based on medium residual acetate by integrating the previously presented equation:

Chlorella sp. HS26 [2] = system: Chlorella sp. HS26
Description: The experiment of Example 11 was repeated with Chlorella sp. HS26 to evaluate the impact of pH induced acetate toxicity on microalgal lipid and protein accumulation. The two treatments of pH 6.5 and pH 7.5 were set up in outdoor raceway ponds utilizing a pH auxostat with a set point at the designated pH values. The microalgae were cultured for 8 days. Duplicate cultures of each treatment were performed in the experiment. […] The cultures were inoculated at a density of 1 g/L, cultured at a temperature of 25° C., and received natural sunlight.

[3] = system: Aurantiochytrium sp. HS399
Source text: Because the microalgae pH homeostasis will tend to maintain an internal cell pH slightly above neutral (about 7-8) in response to medium acidification, the acetate built up inside the cell may be modeled. The internal acetate concentration of a cell may be calculated from the external culture pH, and the residual acetate concentration in the culture, assuming that the internal pH of the cell and the ionic strength are maintained constant. The pH gradient between the internal cell pH and pH of the culture medium outside the cell may be calculated with the following equation derived from the Hendersen Hassleback equation, from which the internal acetate concentration can be solved: […]
An experiment was conducted to determine the acetate toxicity of Aurantiochytrium sp. HS399. […] The initial culture medium was supplemented with 30 g/L glycerol and 0.5 or 5 g/L acetate.

Chlorella sp. HS26 [4] = conditions: pH 6±0.2 auxostat, dissolved oxygen
Description: An experiment was performed to determine the effect on respiration in microalgae Chlorella sp. HS26 in response to acetate toxicity conditions (i.e., the increase of the internal cell acetate concentration). […] Data presented corresponds to a continuous 200 L bubble column culture growing in axenic conditions at culture density of 12 g/L, that was incubated at a temperature of 25 f 0.3° C., and aerated at a rate of 30 LPM. The pH probe: E&H, Digital non-glass pH sensor, Tophit CPS471D helped to maintain the pH at 6±0.2 in a pH auxostat mode. The DO was recorder with a Hamilton, EasyFerm Plus Arc 120, P/N: 242091/06 probe. Samples were taken before and after each pulse and analyzed for residual acetate using HPLC.

[5] = system: Aurantiochytrium sp. HS399; remark: listed apart in the source
[6] = system: Aurantiochytrium sp. HS399; conditions: pH 5.5 with Acetic Acid, pH 7.0 with HCl
Description: (§1) An experiment was performed to determine the effectiveness of applying acetate toxicity to microalgae cultures grown in the presence of a non-acetate organic carbon source, in this case glycerol. Aurantiochytrium sp. HS399 was grown in a 100 L open pond. […] Trace and vitamins stocks were prepared according to Ashford, et al. 2000. Lipids 35, 1377-1386. The ponds were inoculated at 1 v/v using exponentially growing cultures. Aeration was maintained at 0.5 vvm using a porous hose. […] Cytosolic (internal cell) acetate concentration was calculated using the previously described model.

total aerobic bacteria = conditions: for Contamination: pH 5.5 with Acetic Acid, pH 7.0 with HCl
Description: as §1

Chlorella sp. HS26 [7] = system: Chlorella sp. HS26; remark: listed apart in the source
Description: An experiment was conducted with Chlorella sp. HS26 to evaluate the impact of pH induced acetate toxicity on microalgal growth during a batch culturing process. The two treatments of pH 6.5 and pH 7.5 were set up in outdoor raceway ponds utilizing a pH auxostat with a set point at the designated pH values and cultured for seven days. Duplicate cultures of each treatment were performed in the experiment. […] The cultures were inoculated at a density of 1 g/L, cultured at a temperature of 25° C., and received natural sunlight.

Chlorella sp. HS26 [8] = conditions: pH-auxostat feed
Source text: Samples were taken daily to measure dry weight and residual acetate concentration of the culture medium.

[9] = system: Aurantiochytrium sp. HS399; conditions: nitrogen source
Description: An experiment was conducted to determine the effect of different nitrogen sources on the internal cell acetate concentration for cultures of Aurantiochytrium sp. HS399 cultures. […] 7H2O (2.5), KCl (0.5), CaCl2 (0.1), KH2PO4 (0.5) vitamins (1 ml/L) and trace metal (5 ml/L). […] The ponds were inoculated at 1 v/v using exponentially growing cultures. Aeration was maintained at 0.5 vvm using a porous hose. Equimolar nitrogen concentrations were added top each pond reactor. […] Culture dry weights (filtration) and residual acetate (HPLC) in the culture medium were analyzed daily. Cytosolic (internal cell) acetate concentration was calculated using the previously described model.

## CC(=O)O [Acetic Acid, acetic acid]
[1]
  respiration rate in response to acetic acid toxicity: increases respiration rate
Chlorella sp. HS26 [2]; pH 6.5, day 0
  Ash: 26 6 % DW
  Total Carbohydrates: 28.51 % DW
  Total Lipids: 9.82 % DW
  Total Protein: 35.07 % DW
Chlorella sp. HS26 [2]; pH 6.5, day 8
  Ash: 3.26 % DW
  Total Carbohydrates: 32.13 % DW
  Total Lipids: 29.34 % DW
  Total Protein: 35.28 % DW
Chlorella sp. HS26 [2]; pH 7.5, day 0
  Ash: 26 6 % DW
  Total Carbohydrates: 28.51 % DW
  Total Lipids: 9.82 % DW
  Total Protein: 35.07 % DW
Chlorella sp. HS26 [2]; pH 7.5, day 8
  Ash: 3.05 % DW
  Total Carbohydrates: 33.62 % DW
  Total Lipids: 23.66 % DW
  Total Protein: 39.69 % DW
[3]; 53 g/L internal acetate concentration
  growth: tolerated
[3]; 153 g/l internal acetate concentration
  growth: inhibited
[3]; 329 g/L internal acetate concentration
  growth: did not proliferate
[3]; pH 4.5, day 0
  Cell Dry Weight: 0.3 g/L
[3]; pH 4.5, day 1
  Cell Dry Weight: 1.8 g/L
[3]; pH 4.5, day 2
  Cell Dry Weight: 4.5 g/L
[3]; pH 4.5, day 3
  Cell Dry Weight: 6.4 g/L
[3]; pH 4.5, day 4
  Cell Dry Weight: 7.8 g/L
[3]; pH 4.5, day 5
  Cell Dry Weight: 8.4 g/L
[3]; pH 4.5, day 6
  Cell Dry Weight: 9.3 g/L
[3]; pH 5.0, day 0
  Cell Dry Weight: 0.3 g/L
[3]; pH 5.0, day 1
  Cell Dry Weight: 2.1 g/L
[3]; pH 5.0, day 2
  Cell Dry Weight: 5.6 g/L
[3]; pH 5.0, day 3
  Cell Dry Weight: 8.1 g/L
[3]; pH 5.0, day 4
  Cell Dry Weight: 9.9 g/L
[3]; pH 5.0, day 5
  Cell Dry Weight: 10.6 g/L
[3]; pH 5.0, day 6
  Cell Dry Weight: 11.4 g/L
[3]; pH 5.5, day 0
  Cell Dry Weight: 0.3 g/L
[3]; pH 5.5, day 1
  Cell Dry Weight: 1.9 g/L
[3]; pH 5.5, day 2
  Cell Dry Weight: 5.5 g/L
[3]; pH 5.5, day 3
  Cell Dry Weight: 8.5 g/L
[3]; pH 5.5, day 4
  Cell Dry Weight: 10.8 g/L
[3]; pH 5.5, day 5
  Cell Dry Weight: 11.4 g/L
[3]; pH 5.5, day 6
  Cell Dry Weight: 12.0 g/L
[3]; pH 7.0, day 0
  Cell Dry Weight: 0.3 g/L
[3]; pH 7.0, day 1
  Cell Dry Weight: 2.7 g/L
[3]; pH 7.0, day 2
  Cell Dry Weight: 7.1 g/L
[3]; pH 7.0, day 3
  Cell Dry Weight: 9.8 g/L
[3]; pH 7.0, day 4
  Cell Dry Weight: 12.0 g/L
[3]; pH 7.0, day 5
  Cell Dry Weight: 12.7 g/L
[3]; pH 7.0, day 6
  Cell Dry Weight: 12.7 g/L
Chlorella sp. HS26 [4]
  respiration rate in response to acetic acid toxicity: increases its respiration rate
[5]; internal acetate concentration 53 g/L
  growth inhibited: not
[5]; internal acetate concentration 153 g/L
  growth inhibited: inhibited
[5]; pH 4.5, day 0
  Cell Dry Weights: 0.4 g/L
[5]; pH 4.5, day 1
  Cell Dry Weights: 0.5 g/L
[5]; pH 4.5, day 2
  Cell Dry Weights: 0.3 g/L
[5]; pH 4.5, day 3
  Cell Dry Weights: 0.2 g/L
[5]; pH 4.5, day 4
  Cell Dry Weights: 0.3 g/L
[5]; pH 4.5, day 5
  Cell Dry Weights: 0.0 g/L
[5]; pH 5.0, day 0
  Cell Dry Weights: 0.4 g/L
[5]; pH 5.0, day 1
  Cell Dry Weights: 2.3 g/L
[5]; pH 5.0, day 2
  Cell Dry Weights: 5.0 g/L
[5]; pH 5.0, day 3
  Cell Dry Weights: 7.1 g/L
[5]; pH 5.0, day 4
  Cell Dry Weights: 8.9 g/L
[5]; pH 5.0, day 5
  Cell Dry Weights: 10.0 g/L
[5]; pH 5.5, day 0
  Cell Dry Weights: 0.4 g/L
[5]; pH 5.5, day 1
  Cell Dry Weights: 2.7 g/L
[5]; pH 5.5, day 2
  Cell Dry Weights: 5.6 g/L
[5]; pH 5.5, day 3
  Cell Dry Weights: 8.0 g/L
[5]; pH 5.5, day 4
  Cell Dry Weights: 10.2 g/L
[5]; pH 5.5, day 5
  Cell Dry Weights: 11.6 g/L
[5]; pH 7.0, day 0
  Cell Dry Weights: 0.4 g/L
[5]; pH 7.0, day 1
  Cell Dry Weights: 1.5 g/L
[5]; pH 7.0, day 2
  Cell Dry Weights: 2.9 g/L
[5]; pH 7.0, day 3
  Cell Dry Weights: 4.1 g/L
[5]; pH 7.0, day 4
  Cell Dry Weights: 5.4 g/L
[5]; pH 7.0, day 5
  Cell Dry Weights: 6.3 g/L
[6]; day 0
  Cell Dry Weight: 0.0 g/L
[6]; day 1
  Cell Dry Weight: 1.1 g/L
[6]; day 2
  Cell Dry Weight: 3.5 g/L
[6]; day 3
  Cell Dry Weight: 6.2 g/L
[6]; day 4
  Cell Dry Weight: 7.7 g/L
[6]; day 5
  Cell Dry Weight: 9.7 g/L
Total aerobic bacteria; day 0
  Contamination: 5.5E+04 CFU/mL
Total aerobic bacteria; day 1
  Contamination: 4.8E+05 CFU/mL
Total aerobic bacteria; day 2
  Contamination: 5.7E+07 CFU/mL
Total aerobic bacteria; day 3
  Contamination: 4.0E+10 CFU/mL
Total aerobic bacteria; day 4
  Contamination: 4.6E+12 CFU/mL
Total aerobic bacteria; day 5
  Contamination: 8.0E+14 CFU/mL
Total aerobic bacteria; throughout the batch, acetate toxicity conditions (pH 5.5)
  decrease of aerobic bacteria counts versus other treatment: ≥ 3 log
Aerobic bacteria; pH set point 5.5, day 0.0
  Aerobic bacteria count: 1.1E+04 CFU/mL
Aerobic bacteria; pH set point 5.5, day 0.9
  Aerobic bacteria count: 2.1E+04 CFU/mL
Aerobic bacteria; pH set point 5.5, day 1.9
  Aerobic bacteria count: 2.2E+04 CFU/mL
Chlorella sp. HS26 [7]; pH 6.5 cultures
  average three-day productivity: 1.14 g/L/day
Chlorella sp. HS26 [7]; pH 7.5 cultures
  average three-day productivity: 0.76 g/L/day
Chlorella sp. HS26 [8]; day 0
  Cell Dry Weight: 0.3 g/L
Chlorella sp. HS26 [8]; day 1
  Cell Dry Weight: 0.8 g/L
Chlorella sp. HS26 [8]; day 2
  Cell Dry Weight: 2.7 g/L
Chlorella sp. HS26 [8]; day 3
  Cell Dry Weight: 3.7 g/L
Chlorella sp. HS26 [8]; day 4
  Cell Dry Weight: 4.7 g/L
Chlorella sp. HS26 [8]; day 5
  Cell Dry Weight: 5.3 g/L
Chlorella sp. HS26 [8]; day 6
  Cell Dry Weight: 5.3 g/L

## Cl [HCl, hydrochloric acid]
[6]; day 0
  Cell Dry Weight: 0.1 g/L
[6]; day 1
  Cell Dry Weight: 1.6 g/L
[6]; day 2
  Cell Dry Weight: 4.3 g/L
[6]; day 3
  Cell Dry Weight: 5.5 g/L
[6]; day 4
  Cell Dry Weight: 6.5 g/L
[6]; day 5
  Cell Dry Weight: 8.1 g/L
Total aerobic bacteria; day 0
  Contamination: 1.9E+05 CFU/mL
Total aerobic bacteria; day 1
  Contamination: 2.9E+10 CFU/mL
Total aerobic bacteria; day 2
  Contamination: 1.3E+16 CFU/mL
Total aerobic bacteria; day 3
  Contamination: 2.1E+18 CFU/mL
Total aerobic bacteria; day 4
  Contamination: 1.4E+17 CFU/mL
Total aerobic bacteria; day 5
  Contamination: 3.4E+21 CFU/mL

## N[C@@H](CCC(=O)O)C(=O)[O-].[Na+] [MSG, monosodium glutamate]
[9]; day 0
  Cell Dry Weight: 0.2 g/L
[9]; day 1
  Cell Dry Weight: 3.5 g/L
[9]; day 2
  Cell Dry Weight: 6.8 g/L
[9]; day 3
  Cell Dry Weight: 8.1 g/L
[9]; day 4
  Cell Dry Weight: 9.7 g/L
[9]; day 5
  Cell Dry Weight: 10.2 g/L

## N [NH3, ammonia]
[9]; day 0
  Cell Dry Weight: 0.2 g/L
[9]; day 1
  Cell Dry Weight: 1.9 g/L
[9]; day 2
  Cell Dry Weight: 7.4 g/L
[9]; day 3
  Cell Dry Weight: 7.8 g/L
[9]; day 4
  Cell Dry Weight: 9.9 g/L
[9]; day 5
  Cell Dry Weight: 10.3 g/L
